Columns and labels:
CVB3-H3 = assay: Plaque reduction assay, CVB3-H3 in HeLa-RW cells; format: cell-based, coxsackievirus B3; conditions: compound added 30 min before infection, CVB3-H3 MOI 1, HeLa-RW, 6 hours; log10(titer with DMSO only/titer with inhibitor)
coxsackievirus B3 (CVB3) [1] = assay: Cell viability assay, prevention of cell death caused by CVB3 infection; format: cell-based; conditions: for Selectivity index: 50% Cytotoxic concentration/50% activity concentration; for IC50 / EC (peak activity): Enterovirus B; for IC50: read-out: 50% activity concentration (IC50); for EC (peak activity): HeLa-RW cells and CVB3 at low multiplicity of infection, read-out: Peak Activity Conc.
Protocol: (§1) Procedure: Enteroviruses rapidly cause cell death, and a cell viability assay was used to examine the cytotoxicity of each compound and to identify the concentration needed to prevent cell death caused by coxsackievirus B3 (CVB3) infection.
(§2) Compounds were diluted two-fold and added to wells of 384 well plate. HeLa-RW cells were then added (cytotoxicity testing), or cells and CVB3 were added to provide a low multiplicity of infection to determine concentration of peak activity or 50% maximal concentration. Selectivity index is defined as the 50% Cytotoxic concentration/50% activity concentration

[2] = system: eGFP-expressing recombinant CVB3; format: cell-based, coxsackievirus B3; conditions: for % of eGFP + cells, 0 Hr: compound added 0 hr post infection at its peak activity concentration, DMSO 26.0; for % of eGFP + cells, 0 Hr / % of eGFP + cells, 1 Hr / % of eGFP + cells, 2 Hr: read 6 hr post infection; for % of eGFP + cells, 1 Hr: compound added 1 hr post infection at its peak activity concentration, DMSO 23.7; for % of eGFP + cells, 2 Hr: compound added 2 hr post infection at its peak activity concentration, DMSO 24.8; for Inhibition of infected cells: eGFP-CVB3 m.o.i=1, compound added at time of infection, 6 hr post infection, 1-(% eGFP+ cells with compound/% with DMSO only)
[3] = system: viral capsid proteins of CVB3; assay: Immunoblot detection of CVB3 viral capsid protein; format: cell-based, coxsackievirus B3; conditions: six hours after infection with CVB3; compound added 30 minutes before inoculation; 10 μM fluoxetine in FIG. 2
HeLa-RW cells = format: cell-based; conditions: in words
Protocol: as §1, §2

CVB3 = assay: Time of addition experiment, CVB3 in HeLa cells; format: cell-based, coxsackievirus B3
coxsackievirus B3 (CVB3) [4] = assay: Cell viability assay, prevention of cell death caused by CVB3 infection; format: cell-based; conditions: Enterovirus B, HeLa, read-out: 50% effective concentration (EC50), CVB3 replication
poliovirus 1 (PV-1) = format: cell-based; set-up: dose or concentration left out as unconfirmed; conditions: HeLa cells, MOI of 1, six hours (FIG. 6)
poliovirus-3 (PV-3) = format: cell-based; set-up: dose or concentration left out as unconfirmed; conditions: HeLa cells, MOI of 1, six hours (FIG. 6)

Row | Compound | Log10 reduction of virus titer (CVB3-H3) | Selectivity index (coxsackievirus B3 (CVB3) [1]) | IC50 (coxsackievirus B3 (CVB3) [1]) [nM] | EC (peak activity) (coxsackievirus B3 (CVB3) [1]) [µM] | % of eGFP + cells, 0 Hr [2] [%] | % of eGFP + cells, 1 Hr [2] [%] | % of eGFP + cells, 2 Hr [2] [%] | Inhibition of infected cells [2] [%] | viral capsid protein detected by immunoblot [3] | cytotoxicity to HeLa cells (HeLa-RW cells) | CVB3 replication, compound added 1 hour or more after inoculation (CVB3; added 1 hour or more after inoculation (FIG. 7)) | CVB3 replication, compound added prior to inoculation (CVB3; added prior to inoculation of cultures (FIG. 7)) | EC50 (coxsackievirus B3 (CVB3) [4]) [nM] | titer of virus produced, PV-1 (poliovirus 1 (PV-1)) | titer of virus produced, PV-3 (poliovirus-3 (PV-3)) | activity when added 2 hours after infection begins (CVB3; virus produced six hours after infection (FIG. 7))
1 | NCCC(Oc1ccc(C(F)(F)F)cc1)c1ccccc1 (stereo not shown) [Compound 74, 3-Phenyl-3-[4-(trifluoromethyl)phenoxy]-1-propanamine] | 4.7 | 10 | 2530 | 6.25 | 0.0 | 0.0 | 0.0 | 100 | no viral protein is detected | – | – | – | – | – | – | –
2 | COc1ccc(C(=O)N2CCC(C(=O)c3ccc4c(c3)OCCO4)CC2)cc1F [Compound 45, 2,3-Dihydro-1,4-benzodioxin-6-yl [1-(3-fluoro-4-methoxybenzoyl)-4-piperidinyl] methanone] | 2.0 | 125 | 200 | 1.56 | 8.9 | 17.0 | 20.0 | 82.1 | – | minimally cytotoxic | less potent | markedly reduced | 200 | – | – | –
3 | CC(C)n1ncc2c(C(=O)Nc3ccccc3F)cc(-c3cccs3)nc21 [Compound 3, N-(2-Fluorophenyl)-1-isopropyl-6-(2-thienyl)-1H-pyrazolo [3,4-b]pyridine-4-carboxamide] | 4.5 | 175 | 1140 | 3.13 | 0.0 | 0.0 | 0.0 | 100 | – | – | – | – | – | marked reduction | marked reduction | equivalently active
4 | CC(C)n1ncc2c(C(=O)Nc3ccc4c(c3)OCO4)cc(-c3ccccc3)nc21 [Compound 21, N-(1,3-Benzodioxol-5-yl)-1-isopropyl-6-phenyl-1H-pyrazolo [3,4-b]pyridine-4-carboxamide] | 4.5 | 21 | 1190 | 3.13 | 0.0 | 0.0 | 0.0 | 100 | – | – | – | – | – | – | – | –
5 | CN1c2ccccc2C(=O)NC1c1cc2ccccc2nc1N1CCOCC1 (stereo not shown) [Compound 23, 1-Methyl-2-[2-(4-morpholinyl)-3-quinolinyl]-2,3-dihydro-4(1H)-quinazolinone] | 4.4 | 54 | 920 | 3.13 | 0.1 | 3.8 | 0.0 | 100 | – | – | – | – | – | – | – | –
6 | N#Cc1ccc(OCc2nc3ccccc3n2-c2ccccc2)cc1 [Compound 42, 4-[(1-Phenyl-1H-benzimidazol-2-yl)methoxy) benzonitrile] | 4.5 | 8 | 3000 | 6.25 | 0.0 | 0.1 | 0.0 | 100 | – | – | – | – | – | – | – | –
7 | C/C(=C\c1ccccc1)C1NC(N)=Nc2nc3ccccc3n21 (stereo not shown) [Compound 68, 4-[(1E)-1-Phenyl-1-propen-2-yl)-1,4-dihydro[1,3,5] triazino[1,2-a]benzimidazol-2-amine] | 3.7 | 21 | 1210 | 3.13 | 0.0 | 0.0 | 0.0 | 100 | – | – | – | – | – | – | – | –
8 | Cc1ccccc1NC(=O)c1cc(-c2cccs2)nc2c1cnn2C(C)C [Compound 1, 1-Isopropyl-N-(2-methylphenyl)-6-(2-thienyl)-1H-pyrazolo [3,4-b]pyridine-4-carboxamide] | 4.4 | 42 | 600 | 1.56 | 0.0 | 0.0 | 0.0 | 100 | – | – | – | – | – | – | – | –
9 | O=C(Nc1nc(CN2CCCC2)cs1)c1cc(-c2cccs2)nc2ccccc12 [Compound 33, N-[4-(1-Pyrrolidinylmethyl)-1,3-thiazol-2-yl)-2-(2-thienyl)-4-quinoline-carboxamide] | 4.5 | 44 | 570 | 3.13 | 0.0 | 0.0 | 0.0 | 100 | – | – | – | – | – | – | – | –
10 | COc1ccc(N(Cc2ccc(F)cc2)C(=O)c2ccco2)cc1 [Compound 57, N-(4-Fluorobenzyl)-N-(4-methoxyphenyl)-2-furamide] | 4.3 | 16 | 3130 | 6.25 | 0.0 | 0.0 | 0.0 | 99.7 | – | – | – | – | – | – | – | –
